Results published in patent publication US20100048657A1, “CONTROL OF MALIGNANT CELLS PROLIFERATION THROUGH THE INHIBITION OF CASEIN KINASE 2” (CLEVELAND STATE UNIVERSITY, priority 2006, published 2010).

Assays:
MEG-01 cells [1] = test: Apoptosis assay by flow cytometry with AnnexinV-FITC and PI; type: cell-based, human; conditions: for early apoptotic cells (FL1H+, FL3H−) versus control untreated (DMSO): 72 hours; for early apoptotic cells (FL1H+, FL3H−) versus control untreated (DMSO) / total apoptotic cells (late plus early) versus control untreated (DMSO): p<0.01; for cytotoxicity: MEG-01 cells
Experimental: For induction of typical apoptosis, cells were cultured with 1 μM Staurosporine (Sigma-Aldrich, cat. # S6942) for 6 hours as recommended in the protocol from the provider. Next the Staurosporine treated cells were stained as follows: (1) with PI, (2) with AnnexinV-FITC and (3) both PI and AnnexinV-FITC in order to have the brightest controls for compensation and proper collection of the flow cytometry data. Cell necrosis was induced by heat shock (65° C. for 30 minutes). Controls for necrosis were stained in the same way as for the Staurosporine treated cells.
In order to establish the effect of the treatments on the apoptosis levels, the non-treated cells (as well as the mock control DMSO) were considered as a control, stained with PI and AnnexinV-FITC and the unstained cells, grown for the same length of treatment. The unstained control signal was subtracted by gating from the stained control and the rest of stained samples, to get only the positive stained cells signal. The stained control, both PI and AnnexinV-FITC labeled, was then used as the reference in establishing the level of apoptosis induced by the treatments.
Samples contained three cell populations of different size and shape and data was collected on logarithmic modes. AnnexinV-FITC corresponds to FL1H channel, and PI to FL3H or FL2H channels. When needed, compensation was done to remove any spillover between the channels. In addition, proper gating was done to characterize each cell population. The population of cells high on FSC and SSC, identified as large, non-granulated particles corresponds to MEG-01 cells. This population is involved in the proplatelets formation and terminal phase of megakaryocytopoiesis and in thrombocytopoiesis. MEG-01 gate is the one of interest in estimating the apoptosis level induced by the treatments.
The Apoptosis AnnexinV-FITC and PI kit from BD Biosciences, CA, USA was used. 105-106 cells were stained with 50 μg/ml propidium iodide (PI) and with 0.5 μg/ml FITC-labeled Annexin V using the staining protocol provided by the supplier. Briefly, cells were counted using a Neubauer hemacytometer, then washed and resuspended in the appropriate amount of AnnexinV-binding buffer 1× (provided in the kit), in order to have the most […] in 100 μl. Then it was used further, as the total reaction volume 100 μl (containing 10^6 cells) to which PI and AnnexinV-FITC was added. Incubation was done for 15 minutes in dark at room temperature. Samples were then analyzed immediately by flow cytometry.
With reference to FIGS. 5-9, apoptosis flow cytometry (AnnexinV-FITC corresponding to FL1H and PI corresponding to FL3H) is depicted. Analyzed and graphed values correspond to frequencies of the parent obtained with FlowJo software version 6.2, after quadrant gating. […] In FIG. 5, apoptotic cells, percentages (FL1H+, FL3H−), after 24 hours of treatment with CK2α inhibitors are depicted. Left bar represents Control untreated (DMSO), middle bar represents DMAT 20 μM treatment and right bar represents TBB 50 μM treatment. The MEG-01 cells were treated for a period of 24 hours. […] Left column represents the Control untreated (DMSO), middle bar represents DMAT 20 μM treatment and right bar represents TBB 50 μM treatment. The MEG-01 cells were treated for a period of 72 hours. […] Left bar represents the Control untreated (DMSO), middle bar represents DMAT 20 μM treatment and right bar represents TBB 50 μM treatment. The MEG-01 cells were treated for a period of 96 hours. […] FIG. 8 illustrates control untreated (DMSO) stained for both Annexin V-FITC and PI, after 24 hours.

MEG-01 cells [2] = test: Viability (proliferation) assay, Trypan blue exclusion; conditions: for proliferation rate / cell number of MEG-01 cells: 4 days of treatment
Source text: In order to check the effect of CK2 inhibitors, the treatments length went up to 4, 5 days without splitting.
Cells were counted using a Neubauer hemacytometer. Trypan blue dye was used according to the manufacturer (Sigma-Aldrich, cat. # T8154).
Cell number (as cells/ml) was estimated using the formula [(total count/0.1)/total surface area counted]*(dilution factor), where 0.1 is the chamber depth, considering the appropriate area counted, half dilution for Trypan blue was considered in calculations. Countings were done as quadruplicates every 24 hours.
Quadruplicates values were used for each sample. Experiments were repeated at least 4 times, in order to see if the trend is correct and reproducible.

[3] = tested on: αIIbβ3 integrin expression on MEG-01 cells; test: RPE-CD41a flow cytometric immunophenotyping (maturation); type: cell-based, human
Source text: CD41a is the antigen for αIIbβ3 complex and it is found on platelets and platelet precursors, including MEG-1 cell line (Ogura et al., 1985; Zunino et al., 2001). It acts as a receptor for fibrinogen, von Willebrand factor, fibronectin, and vitronectin, and it mediates platelet adhesion and aggregation. αIIbβ3 complex is a marker of differentiation for megakaryocytes (as an increase in the fluorescence of stained cells corresponds to more αIIbβ3 receptor expression and differentiation towards platelets production) and it is simply a marker for the platelets. CD41a is conjugated with R-Phytocoerthrin (RPE), in order to be used in flow cytometry experiments. The staining protocol provided by BD Biosciences was followed. Briefly, cells were washed and resuspended in 1×PBS with 0.1% FBS, 0.01% NaN3, and 0.22 μm filtered buffer. Cells were counted and adjusted to be 10^6 cells/ml and 20 μl of RPE-CD41a was used for 180 μl cell suspension.
RPE conjugated stained cells were collected on FL2H channel and gating on populations was done on FSC and SSC logarithmic modes. […]
Regarding FIGS. 16-20, maturation (differentiation) of MEG-01 cells is described. […] Control untreated unstained—plot A, control untreated stained—plot B, 10 μM DMAT—plot C, 25 μM TBB—plot D, 1 nM PMA treatments—plot E. FIG. 18 represents total percentage relative fluorescence for RPE-CD41a immunophenotyping. […]

[4] = tested on: fibrinogen receptor expression on MEG-01 cells; test: Fibrinogen-Alexa Fluor 488 binding to MEG-01 cells; type: cell-based, human; conditions: 10 μM
Experimental: RPE conjugated stained cells were collected on FL2H channel and gating on populations was done on FSC and SSC logarithmic modes. The unstained control signal was subtracted from the stained cells signal, in order to measure the staining of the cells without background noise. Similar staining was done for Fibrinogen-Alexa Fluor 488 (300 nM). Cells were collected on FL1H channel and gating on the interest population was done on FSC and SSC logarithmic modes. Again, the unstained control signal was subtracted from the stained cells signal, in order to measure the staining of the cells without background noise.
Regarding FIGS. 16-20, maturation (differentiation) of MEG-01 cells is described. In FIG. 16, RPECD41a (αIIbβ3 expression) staining for DMAT treated cells (gate MEG-01) is depicted, with control untreated unstained—plot A, Control untreated stained (RPE-CD41a)—plot B, DMAT 10 μM—plot D, DMAT 15 μM—plot C, DMAT 20 μM—plot E. For FIG. 17, RPECD41a (αIIbβ3 expression) staining for DMAT, TBB and PMA (gate MEG-01) is shown. Control untreated unstained—plot A, control untreated stained—plot B, 10 μM DMAT—plot C, 25 μM TBB—plot D, 1 nM PMA treatments—plot E. FIG. 18 represents total percentage relative fluorescence for RPE-CD41a immunophenotyping. […]

[5] = 50 μM, fourth and fifth days (TBB p<0.01, DMAT p<0.005)

| SMILES | apoptosis versus non-treated control (MEG-01 cells [1]; 50 μM, 24 hours, p<0.05) | early apoptotic cells (FL1H+, FL3H−) versus control untreated (DMSO) (MEG-01 cells [1]; 50 μM) | total apoptotic cells (late plus early) versus control untreated (DMSO) (MEG-01 cells [1]; 50 μM, 96 hours) | cytotoxicity (MEG-01 cells [1]) | proliferation (viability) versus Control untreated (DMSO) (MEG-01 cells [2]; [5]) | proliferation rate / cell number of MEG-01 cells (MEG-01 cells [2]; 100 μM) | proliferation (viability) versus Control untreated (DMSO) (MEG-01 cells [2]; 100 μM, fourth and fifth days, p<0.005) | concentration at which the inhibitor had effect (MEG-01 cells [2]; proliferation arrest and induced apoptosis, TBB concentration required for the same effect as DMAT) [µM] | apoptosis (MEG-01 cells [1]; 10 μM, 24 hours) | apoptosis versus non-treated control (MEG-01 cells [1]; 20 μM, 24 hours) | early apoptotic cells (FL1H+, FL3H−) versus control untreated (DMSO) (MEG-01 cells [1]; 20 μM) | total apoptotic cells (late plus early) versus control untreated (DMSO) (MEG-01 cells [1]; 20 μM, 96 hours) | apoptosis compared with TBB (MEG-01 cells [1]; DMAT 20 μM versus TBB 50 μM, 96 hours) | maturation level (RPE-CD41a, αIIbβ3 expression) ([3]; 10 μM) | maturation level (RPE-CD41a, αIIbβ3 expression) ([3]; 20 μM, compared with 10 μM) | fibrinogen-Alexa Fluor 488 binding to MEG-01 cells versus untreated controls [4] | proliferation (viability) versus Control untreated (DMSO) (MEG-01 cells [2]; 25 μM, fourth and fifth days, p<0.01) | proliferation rate / cell number of MEG-01 cells (MEG-01 cells [2]; 50 μM) |
| --- | --- | --- | --- | --- | --- | --- | --- | --- | --- | --- | --- | --- | --- | --- | --- | --- | --- | --- |
| Brc1c(Br)c(Br)c2[nH]nnc2c1Br [TBB, 4,5,6,7-tetrabromobenzotriazole] | significant apoptosis | significant apoptosis after 72 hours | significant apoptosis after 96 hours | without being cytotoxic | very significant statistical differences | maintained a steady number of cells for the 4 days of treatment and induced extremely significant reduction in the proliferation rate | very significant statistical differences | 50 | – | – | – | – | – | – | – | – | – | – |
| CN(C)c1nc2c(Br)c(Br)c(Br)c(Br)c2[nH]1 [DMAT, 2-dimethylamino-4,5,6,7-tetrabromo-1H-benzimidazole] | – | – | – | without being cytotoxic | very significant statistical differences | – | – | – | induced apoptosis | extremely significant apoptosis | significant apoptosis after 72 hours | significant apoptosis after 96 hours | induces more apoptosis at a lower concentration than the less specific inhibitor (TBB) | very significant maturation levels versus control untreated | slight increase in the maturation level | bind significantly better fibrinogen-Alexa Fluor 488 | very significant statistical differences | maintained a steady number of cells for the 4 days of treatment and induced extremely significant reduction in the proliferation rate |
